Source: ChEMBL document CHEMBL4680194, “Synthesis and biological evaluation of 1,2,4-triazole derivatives as potential neuroprotectant against ischemic brain injury” (Eur J Med Chem, 2020)
Calls of active or inactive are those of the source. The rule behind the calls is not given here.

What was measured:
PC-12 [1] = test: Inhibition of SNP-induced apoptosis in rat PC-12 cells assessed as effect on cell morphology incubated for 1 hr followed by SNP stimulation and measured after 24 hrs by Hoechst 33258 staining based fluorescence microscopy; type: functional; conditions: dose 2.5-10 µM, time 25.0 hrs
PC-12 [2] = test: Inhibition of H2O2-induced apoptosis in rat PC-12 cells assessed as reduction in condensed nuclei incubated for 1 hr followed by H2O2 stimulation and measured after 5 hrs by Hoechst 33258 staining based fluorescence microscopy; type: functional, cell-based; conditions: dose 2.5-10 µM, time 6.0 hrs
PC-12 [3] = test: Inhibition of H2O2-induced mitochondrial membrane potential loss in rat PC-12 cells assessed as increase in red fluoresence at 2.5 to 10 uM incubated for 1 hr followed by H2O2 stimulation and measured after 5 hrs by JC-1 staining based fluorescence microscopy; type: functional, cell-based; conditions: dose 2.5-10 µM, time 6.0 hrs
[4] = Metal chelating activity of the compound assessed as Fe2+-compound complex formation incubated for 10 mins in presence of ferrozine by UV-visible spectrophotometry; conditions: read-out: IC50
Rattus norvegicus [5] = test: Neuroprotective activity in Sprague-Dawley rat model of middle cerebral artery occlusion-induced ischemic injury assessed as infarction volume at 3 mg/kg, ip administered TID and measured after 6 hrs by TTC staining based assay (reference value: 28.67 +/- 2.90 %); type: functional
Rattus norvegicus [6] = test: Neuroprotective activity in Sprague-Dawley rat model of middle cerebral artery occlusion-induced ischemic injury assessed as improvement in behavioral changes at 3 to 30 mg/kg, ip administered TID and measured after 24 hrs; type: functional, organism-based; conditions: dose 3-30 mg/kg
Rattus norvegicus [7] = test: Neuroprotective activity in Sprague-Dawley rat model of middle cerebral artery occlusion-induced ischemic injury assessed as increase in SOD level at 3 to 30 mg/kg, ip administered TID and measured after 24 hrs by ELISA; type: functional, organism-based; conditions: dose 3-30 mg/kg
Rattus norvegicus [8] = test: Neuroprotective activity in Sprague-Dawley rat model of middle cerebral artery occlusion-induced ischemic injury assessed as decrease in TNF-alpha level at 3 to 30 mg/kg, ip administered TID and measured after 24 hrs by ELISA; type: functional, organism-based; conditions: dose 3-30 mg/kg
[9] = Toxicity in […] assessed as body weight at 400 mg/kg, ip measured on day 3 (reference value: 24.4 to 28.4 g); type: organism-based; conditions: in vivo, 72 h, time 3 day
[10] = Toxicity in […] assessed as organism death at 400 mg/kg, ip observed for 7 day; type: organism-based; conditions: in vivo
[11] = target: T1, Nuclear factor erythroid 2-related factor 2 (Rattus norvegicus) (UniProt O54968); test: Induction of Nrf2 nuclear translocation in rat PC-12 cells assessed as H2O2-induced GSH level incubated for 1 hr followed by H2O2 stimulation and measured after 5 hrs; type: cell-based; conditions: dose 2.5-10 µM, time 6.0 hrs
T1 sequence (whole entry): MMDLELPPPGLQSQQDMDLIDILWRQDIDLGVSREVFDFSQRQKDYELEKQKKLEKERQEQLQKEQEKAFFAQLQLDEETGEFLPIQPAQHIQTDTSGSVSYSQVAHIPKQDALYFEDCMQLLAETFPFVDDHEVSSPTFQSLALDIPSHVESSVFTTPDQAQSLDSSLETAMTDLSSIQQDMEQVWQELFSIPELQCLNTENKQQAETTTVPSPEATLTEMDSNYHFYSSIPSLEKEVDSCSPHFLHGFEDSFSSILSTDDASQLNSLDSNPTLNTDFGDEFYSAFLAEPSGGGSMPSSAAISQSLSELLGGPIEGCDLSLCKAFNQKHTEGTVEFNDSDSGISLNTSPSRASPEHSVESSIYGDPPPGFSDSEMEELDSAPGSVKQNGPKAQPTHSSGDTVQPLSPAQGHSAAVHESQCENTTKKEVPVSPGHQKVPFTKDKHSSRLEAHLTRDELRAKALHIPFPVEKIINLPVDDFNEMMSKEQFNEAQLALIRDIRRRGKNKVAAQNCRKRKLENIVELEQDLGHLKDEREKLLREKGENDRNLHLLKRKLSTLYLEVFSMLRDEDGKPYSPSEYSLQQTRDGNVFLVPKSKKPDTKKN

[12] = target: T1, Nuclear factor erythroid 2-related factor 2 (Rattus norvegicus); test: Induction of Nrf2 nuclear translocation in rat PC-12 cells assessed as H2O2-induced GSH level at 5 uM incubated for 1 hr followed by H2O2 stimulation and measured after 5 hrs (reference value: 65.52 +/- 1.44 nM/mg); type: cell-based; conditions: time 6.0 hrs
[13] = target: T1, Nuclear factor erythroid 2-related factor 2 (Rattus norvegicus); test: Induction of Nrf2 nuclear translocation in rat PC-12 cells assessed as H2O2-induced GSH-px level at 5 uM incubated for 1 hr followed by H2O2 stimulation and measured after 5 hrs (reference value: 45.92 +/- 3.64 mU/mg); type: cell-based; conditions: time 6.0 hrs
[14] = target: T1, Nuclear factor erythroid 2-related factor 2 (Rattus norvegicus); test: Induction of Nrf2 nuclear translocation in rat PC-12 cells assessed as SNP-induced GSH level at 2.5 uM incubated for 1 hr followed by SNP stimulation and measured after 24 hrs (reference value: 75.78 +/- 1.74 nM/mg); type: cell-based; conditions: time 25.0 hrs
[15] = target: T1, Nuclear factor erythroid 2-related factor 2 (Rattus norvegicus); test: Induction of Nrf2 nuclear translocation in rat PC-12 cells assessed as SNP-induced GSH-px level at 5 uM incubated for 1 hr followed by SNP stimulation and measured after 24 hrs (reference value: 37.70 +/- 2.88 mU/mg); type: cell-based; conditions: time 25.0 hrs
[16] = target: T1, Nuclear factor erythroid 2-related factor 2 (Rattus norvegicus); test: Induction of Nrf2 nuclear translocation in rat PC-12 cells assessed as SNP-induced SOD level at 2.5 uM incubated for 1 hr followed by SNP stimulation and measured after 24 hrs (reference value: 23.74 +/- 2.02 U/mg); type: cell-based; conditions: time 25.0 hrs
[17] = target: T1, Nuclear factor erythroid 2-related factor 2 (Rattus norvegicus); test: Induction of Nrf2 nuclear translocation in rat PC-12 cells assessed as SNP-induced SOD level at 10 uM incubated for 1 hr followed by SNP stimulation and measured after 24 hrs (reference value: 23.74 +/- 2.02 U/mg); type: cell-based; conditions: time 25.0 hrs
[18] = target: T1, Nuclear factor erythroid 2-related factor 2 (Rattus norvegicus); test: Induction of Nrf2 nuclear translocation in rat PC-12 cells assessed as SNP-induced GSH-px level incubated for 1 hr followed by SNP stimulation and measured after 24 hrs; type: cell-based; conditions: dose 2.5-10 µM, time 25.0 hrs
PC-12 [19] = test: Cytoprotective activity against SNP-induced cell death in rat PC12 cells assessed as increase in cell viability at 10 uM incubated for 1 hr followed by SNP stimulation and measured after 24 hrs in presence of LY294002 by MTT assay; type: functional, cell-based; conditions: time 25.0 hrs
[20] = MRT in Sprague-Dawley rat at 20 mg/kg, po measured upto 24 hrs by LC-MS/MS analysis; type: ADME, organism-based; conditions: in vivo
[21] = Clearance in Sprague-Dawley rat at 20 mg/kg, po measured upto 24 hrs by LC-MS/MS analysis; type: ADME, organism-based; conditions: in vivo
[22] = Oral bioavailability in Sprague-Dawley rat at 20 mg/kg measured upto 24 hrs by LC-MS/MS analysis; type: ADME, organism-based; conditions: in vivo
[23] = Tmax in Sprague-Dawley rat at 2 mg/kg, iv measured upto 24 hrs by LC-MS/MS analysis; type: ADME, organism-based; conditions: in vivo
[24] = Cmax in Sprague-Dawley rat at 2 mg/kg, iv measured upto 24 hrs by LC-MS/MS analysis; type: ADME, organism-based; set-up: route intravenous, dose 2 mg/kg, time <=24; conditions: in vivo
[25] = MRT in Sprague-Dawley rat at 2 mg/kg, iv measured upto 24 hrs by LC-MS/MS analysis; type: ADME, organism-based; conditions: in vivo
[26] = Clearance in Sprague-Dawley rat at 2 mg/kg, iv measured upto 24 hrs by LC-MS/MS analysis; type: ADME, organism-based; conditions: in vivo

Question: With `COc1ccc(-c2nc(-c3ccccc3O)n(-c3ccc(S(N)(=O)=O)cc3)n2)c(O)c1` as the compound, how does the inhibition (PC-12 [1]) read?
Answer: Its inhibition is “Dose-dependent effect”.

Question: And the inhibition (PC-12 [2])?
Answer: The inhibition was “Dose-dependent effect”.

Question: What about the inhibition (PC-12 [3]) of the same compound?
Answer: The inhibition was “Active”.

Question: What about the IC50 [4] of the same compound?
Answer: The IC50 was 36.3 µM.

Question: And the Activity (Rattus norvegicus [5])?
Answer: The Activity was 20.52%.

Question: What about the Activity (Rattus norvegicus [6]) of the same compound?
Answer: The Activity was “Active”.

Question: And the Activity (Rattus norvegicus [7])?
Answer: Its Activity is “Active”.

Question: What about the Activity (Rattus norvegicus [8]) of the same compound?
Answer: Its Activity is “Active”.

Question: And the Activity [9]?
Answer: Its Activity is 24.5 g.

Question: And the LD50 at 168 h [10]?
Answer: Its LD50 at 168 h is 400 mg/kg.

Question: And the Activity [11]?
Answer: Its Activity is “Dose-dependent effect”.

Question: What about the Activity [12] of the same compound?
Answer: Its Activity is 72.5 nM/mg.

Question: What about the Activity [13] of the same compound?
Answer: The Activity was 65.2 mU/mg.

Question: And the Activity [14]?
Answer: Its Activity is 79.1 nM/mg.

Question: And the Activity [15]?
Answer: Its Activity is 44.4 mU/mg.

Question: And the Activity [16]?
Answer: The Activity was 34.6 U/mg.

Question: And the Activity [17]?
Answer: Its Activity is 39.1 U/mg.

Question: What about the Activity [18] of the same compound?
Answer: The Activity was “Dose-dependent effect”.

Question: What about the Activity (PC-12 [19]) of the same compound?
Answer: The Activity was “inactive”.

Question: And the MRT [20]?
Answer: Its MRT is 6.32 h.

Question: What about the CL/F [21] of the same compound?
Answer: Its CL/F is 23.3 mL/min/kg.

Question: And the bioavailability [22]?
Answer: Its bioavailability is 60.8%.

Question: What about the Tmax [23] of the same compound?
Answer: Its Tmax is 4.98 min.

Question: And the Cmax [24]?
Answer: Its Cmax is 2750 ng/mL.

Question: And the MRT [25]?
Answer: Its MRT is 2.37 h.

Question: What about the clearance [26] of the same compound?
Answer: Its clearance is 15 mL/min/kg.
